Laboratory results: article PMC8894198, “Biosynthetic Microcin J25 Exerts Strong Antibacterial, Anti-Inflammatory Activities, Low Cytotoxicity Without Increasing Drug-Resistance to Bacteria Target” (Frontiers in Immunology, 2022)
In brackets after ≈: the same amount, converted by molar mass. Where a SMILES comes first, the peptide text is derived from it. Bridges are numbered along the chain shown (N, C = ends).

Columns and labels:
S. pullorum CVCC1791 = test: MIC broth dilution, standard strain; format: cell-based, Salmonella pullorum; conditions: lowest MIC value, highly sensitive standard strain
Method: (§1) The minimum inhibitory concentration (MIC) refers to the lowest concentration that can produce a significant hindrance to bacterial growth in a drug sensitivity test by adopting a broth dilution, with certain refinements and modifications based on the previous description ([25], [26]). In short, MccJ25 was dissolved in sterilized distilled water (SDW), serial 2-fold dilutions were prepared in Mueller-Hinton broth (MHB) through a 96-well microtiter plate, and the final concentration of MccJ25 was maintained in the range of 0.003125 to 256 μg/mL. Then, 2 μL of standard and clinically relevant overnight broth cultures of bacteria were inoculated into each well at a concentration of 5 × 10^6 CFU/mL. Microtiter plates were incubated at 37°C for one full day. Two groups were set up: positive (medium with inoculum) and negative (medium only) controls. The minimum bactericidal concentration (MBC) was measured in LB medium and refers to the first drug dilution value at which the initial bacterial concentration was reduced by 99.99%. The final analysis was determined by the results of three replicated and independent experiments. To further assess and clarify the antimicrobial activity of MccJ25, the protective ability against E. coli adhesion, live/dead assay, and killing curve were performed, the detailed methods were provided in Supplementary Materials .

[1] = LPS neutralization, chromogenic limulus amebocyte lysate assay; format: biochemical, E. coli; conditions: 8 μg/mL MccJ25, LPS 1 EU/mL, 37°C, A405
Method: The neutralizing impacts of MccJ25 on LPS were assessed according to a color-emitting […] assay. Levels of E. coli LPS (1 EU/mL) were prepared and combined with various concentrations of MccJ25 (1 to 128 µg/mL) and inoculated in the wells of sterile microtiter plates at 37°C. Then, 50 μL of the above mixture was extracted, the same volume of […] reagent was added, and the mixture was incubated for 10 min at 37°C. […] The reaction was finished by adding 25% acetic acid, and finally, its absorbance value at 405 nm was measured.

plasmid DNA (pGEM-bGAL) = conditions: 400 ng plasmid DNA, 1 h room temperature, 1% agarose gel
Method: Based on the previously worked out method ([27]), briefly, gel retardation experiments were carried out, in which 400 ng of plasmid DNA (pGEM-bGAL; Promega) was increasingly bound to […] of binding buffer in MccJ25 binding and incubated for 1 h at room temperature. Then, […] of local loading buffer in each sample was […], and a 12 μL aliquot was bound to a 1% agarose gel. Finally, 0.5× Tris-borate-EDTA buffer was used for electrophoresis.

E. coli K88 [2] = test: Sytox Green influx (membrane permeabilization); format: cell-based; conditions: 0.5 × to 5 × MIC, dose dependent; ex 485 nm, em 520 nm
Method: E. coli K88 cells were incubated at 37°C until growth reached the mid-log phase stage, and the cells were washed and resuspended in 10 mM NaH2PO4, pH 7.2 (2 × 10^7/mL). Cells were then incubated with […] Sytox Green for 15 min in a light-free environment.

E. coli LKFZ GL2 = test: MIC/MBC, clinical isolate; format: cell-based; conditions: source pig stool
Method: as §1

E. coli LKFZ GZM4 = test: MIC/MBC, clinical isolate; format: cell-based; conditions: source pig stool
Method: as §1

E. coli K88 [3] = format: cell-based; conditions: sublethal concentrations 0.25 × and 0.5 × MIC
Method: Mutation rates were based on rifampicin and refined ([28], [29]). Overnight cultures of E. coli K88 were diluted in 50 mL of LB broth at a ratio of 1:10,000 and grown for 3.5 h at 37°C. […] Eleven 1-mL replicates of each treatment group were grown at 37°C for 24 h. These cultures were then serially diluted and plated on LB agar plates containing 100 μg/mL rifampicin. Afterwards, plates were incubated at 37°C for 48 h. Single colonies on the plates were counted to determine CFU/mL. Mutagenesis rates were calculated using the bz-rates-mutation rate calculator (http://www.lcqb.upmc.fr/bzrates).

[4] = LB medium, 99.99% reduction, three independent experiments
[5] = broth dilution in MHB, 37°C, three independent experiments

CC[C@H](C)[C@H](NC(=O)CNC(=O)[C@@H](NC(=O)[C@H](Cc1ccccc1)NC(=O)[C@H](Cc1ccc(O)cc1)NC(=O)[C@@H]1CCC(=O)NCC(=O)NCC(=O)N[C@@H](C)C(=O)NCC(=O)N[C@@H](Cc2c[nH]cn2)C(=O)N[C@@H](C(C)C)C(=O)N2CCC[C@H]2C(=O)N1)C(C)C)C(=O)NCC(=O)N[C@H](C(=O)N1CCC[C@H]1C(=O)N[C@H](C(=O)N[C@@H](CO)C(=O)N[C@@H](Cc1ccccc1)C(=O)N[C@@H](Cc1ccc(O)cc1)C(=O)NCC(=O)O)[C@@H](C)CC)[C@@H](C)O [MccJ25, microcin J25] (GGAGHVPEYFVGIGTPISFYG-OH; lactam N-8 (inferred); C-terminus assumed)
MIC (S. pullorum CVCC1791): 0.03 µg/mL (≈ 0.0142 µM)
LPS neutralization [1]: 92.59%
weight ratio (MccJ25:DNA) at which DNA migration was slightly inhibited (plasmid DNA (pGEM-bGAL)): above 2.0
Sytox Green fluorescence / membrane integrity (E. coli K88 [2]): membrane integrity was significantly disrupted
MBC (E. coli LKFZ GL2; [4]): 0.500 µg/mL (≈ 0.237 µM)
MIC (E. coli LKFZ GL2; [5]): 0.250 µg/mL (≈ 0.119 µM)
MIC/MBC (E. coli LKFZ GL2; ratio): 0.500
MBC (E. coli LKFZ GZM4; [4]): 1.000 µg/mL (≈ 0.475 µM)
MIC (E. coli LKFZ GZM4; [5]): 0.250 µg/mL (≈ 0.119 µM)
MIC/MBC (E. coli LKFZ GZM4; ratio): 0.250
mutation rate compared to the control (E. coli K88 [3]): did not show a greater difference in mutation rate compared to the control
